Measured values: PubChem BioAssay AID248 (DTP/NCI, 2004)
Several values for one entry are separate records, joined by “and”; a condition that tells them apart may be missing. Equal entries are not always repeated. Inconclusive results and toxic doses are left out. No stated cut-off is given here; in the data, active means T/C of 150% or more; inactive means T/C below 125%.

System: L1210 leukemia ip in BDF1 mice, survival T/C
Assay: NCI In Vivo Anticancer Drug Screen. Data for tumor model L1210 Leukemia (intraperitoneal) in B6D2F1 (BDF1) mice
Settings: endpoint: mean survival time, higher = longer survival
How it was run: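 Tumor cells were implanted, animals were treated, and survival was followed. The result divides the treated measurement by the vehicle-control measurement.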

[1] = dose: 100.0 mg/kg/injection, schedule: Q01DX001 (ip), vehicle: saline
[2] = dose: 200.0 mg/kg/injection, schedule: Q01DX001 (ip), vehicle: saline
[3] = dose: 100.0 mg/kg/injection, schedule: Q04DX002 (ip), vehicle: Klucel (hydroxypropylcellulose) (HPC)
[4] = dose: 400.0 mg/kg/injection, schedule: Q04DX002 (ip), vehicle: Klucel (hydroxypropylcellulose) (HPC)
[5] = dose: 100.0 mg/kg/injection, schedule: Q04DX003 (ip), vehicle: saline with Tween-80
[6] = dose: 200.0 mg/kg/injection, schedule: Q04DX003 (ip), vehicle: saline with Tween-80
[7] = dose: 400.0 mg/kg/injection, schedule: Q04DX003 (ip), vehicle: saline with Tween-80
[8] = dose: 200.0 mg/kg/injection, schedule: Q01DX001 (ip), vehicle: Klucel (hydroxypropylcellulose) (HPC)
[9] = dose: 400.0 mg/kg/injection, schedule: Q01DX001 (ip), vehicle: Klucel (hydroxypropylcellulose) (HPC)
[10] = dose: 100.0 mg/kg/injection, schedule: Q01DX001 (ip), vehicle: carboxymethylcellulose (CMC)
[11] = dose: 200.0 mg/kg/injection, schedule: Q01DX001 (ip), vehicle: carboxymethylcellulose (CMC)
[12] = dose: 400.0 mg/kg/injection, schedule: Q01DX001 (ip), vehicle: carboxymethylcellulose (CMC)
[13] = dose: 100.0 mg/kg/injection, schedule: Q04DX003 (ip), vehicle: saline
[14] = dose: 200.0 mg/kg/injection, schedule: Q04DX003 (ip), vehicle: saline
[15] = dose: 400.0 mg/kg/injection, schedule: Q01DX001 (ip), vehicle: saline
[16] = dose: 400.0 mg/kg/injection, schedule: Q04DX003 (ip), vehicle: saline

Measured: T/C

CNc1cc(Cl)ncn1
inactive: dose: 50.0 mg/kg/injection, schedule: Q01DX001 (ip), vehicle: saline 90 % of control | [1] 93 % of control | [2] 95 % of control

CC(C)(C)OC1C2C=CC1C1C2C2(Cl)C(Cl)=C(Cl)C1(Cl)C21OCCO1 (configuration not stated)
inactive: [3] 97 % of control | [4] 110 % of control

O=C(O)CCS(=O)(=O)c1ccc(N(CCCl)CCCl)cc1
inactive: [5] 107 % of control | [6] 102 % of control | [7] 105 % of control

O=C(OCCCCCCOC(=O)c1cccc([N+](=O)[O-])c1)c1cccc([N+](=O)[O-])c1
inactive: dose: 100.0 mg/kg/injection, schedule: Q01DX001 (ip), vehicle: other 93 % of control | dose: 200.0 mg/kg/injection, schedule: Q01DX001 (ip), vehicle: other 93 % of control | dose: 400.0 mg/kg/injection, schedule: Q01DX001 (ip), vehicle: other 101 % of control

C(CC1CCNCC1)CC1CCNCC1
inactive: dose: 10.0 mg/kg/injection, schedule: Q01DX Z (ip), vehicle: saline 96 % of control | dose: 30.0 mg/kg/injection, schedule: Q01DX Z (ip), vehicle: saline 96 % of control

COc1ccc2c(c1OC)CCN1C3=C(CC(OC(=O)c4ccccc4)CC3)C(=O)CC21 (configuration not stated)
inactive: dose: 100.0 mg/kg/injection, schedule: Q01DX001 (ip), vehicle: Klucel (hydroxypropylcellulose) (HPC) 96 % of control | dose: 100.0 mg/kg/injection, schedule: Q01DX009 (ip), vehicle: saline sonified 93 % of control | [8] 94 % of control | dose: 200.0 mg/kg/injection, schedule: Q01DX009 (ip), vehicle: saline sonified 95 % of control | [9] 97 % of control | dose: 400.0 mg/kg/injection, schedule: Q01DX009 (ip), vehicle: saline sonified 93 % of control

Cc1cccc(N=Nc2c(C)nc(N)nc2C)c1C
inactive: dose: 100.0 mg/kg/injection, schedule: Q04DX003 (ip), vehicle: other 94 % of control | dose: 200.0 mg/kg/injection, schedule: Q04DX003 (ip), vehicle: other 96 % of control | dose: 400.0 mg/kg/injection, schedule: Q04DX003 (ip), vehicle: other 93 % of control

COc1ccc(Cl)cc1[N+](=O)[O-]
inactive: [8] 95 % of control | [9] 95 % of control

CCCCC(=O)N/N=C/c1ccc(I)cc1
inactive: [10] 91 % of control | [11] 87 % of control | [12] 91 % of control

c1ccc(-c2ncnc3c2Cc2ccccc2-3)cc1
inactive: dose: 100.0 mg/kg/injection, schedule: Q04DX003 (ip), vehicle: saline sonified 92 % of control | dose: 200.0 mg/kg/injection, schedule: Q04DX003 (ip), vehicle: saline sonified 94 % of control | dose: 400.0 mg/kg/injection, schedule: Q04DX003 (ip), vehicle: saline sonified 97 % of control

COC1OC2CSC(=S)OC2C(OC)C1OC (configuration not stated)
inactive: dose: 25.0 mg/kg/injection, schedule: Q04DX002 (ip), vehicle: saline 100 % of control | dose: 50.0 mg/kg/injection, schedule: Q04DX002 (ip), vehicle: saline 92 % of control | dose: 100.0 mg/kg/injection, schedule: Q04DX002 (ip), vehicle: saline 103 % of control | dose: 200.0 mg/kg/injection, schedule: Q04DX002 (ip), vehicle: saline 102 % of control | dose: 400.0 mg/kg/injection, schedule: Q04DX002 (ip), vehicle: saline 102 % of control

C[PH+](c1ccccc1)c1ccccc1.C[PH+](c1ccccc1)c1ccccc1.[Cl][Pd][Cl]
inactive: dose: 75.0 mg/kg/injection, schedule: Q04DX003 (ip), vehicle: saline 112 % of control | dose: 150.0 mg/kg/injection, schedule: Q04DX003 (ip), vehicle: saline 107 % of control | dose: 300.0 mg/kg/injection, schedule: Q04DX003 (ip), vehicle: saline 104 % of control

COC(=O)C1OC(CO)C(O)C1O (configuration not stated)
inactive: [1] 105 % of control | [13] 110 % of control | [2] 113 % of control | [14] 107 % of control | [15] 97 % of control | [16] 110 % of control

C1=CC2CCC1NO2 (configuration not stated)
inactive: [1] 105 % of control | [2] 95 % of control | [15] 101 % of control

O=C1CCC(N2C(=O)C3CC=CCC3C2=O)C(=O)N1 (configuration not stated)
inactive: [13] 104 % of control and 109 % of control | [14] 104 % of control and 106 % of control | [16] 97 % of control and 112 % of control

CCCCCCNc1c([N+](=O)[O-])cc(C)cc1[N+](=O)[O-]
inactive: dose: 100.0 mg/kg/injection, schedule: Q01DX009 (ip), vehicle: Klucel (hydroxypropylcellulose) (HPC) 100 % of control | dose: 100.0 mg/kg/injection, schedule: Q04DX003 (ip), vehicle: Klucel (hydroxypropylcellulose) (HPC) 103 % of control | dose: 200.0 mg/kg/injection, schedule: Q01DX009 (ip), vehicle: Klucel (hydroxypropylcellulose) (HPC) 111 % of control | dose: 200.0 mg/kg/injection, schedule: Q04DX003 (ip), vehicle: Klucel (hydroxypropylcellulose) (HPC) 116 % of control | dose: 400.0 mg/kg/injection, schedule: Q01DX009 (ip), vehicle: Klucel (hydroxypropylcellulose) (HPC) 96 % of control | dose: 400.0 mg/kg/injection, schedule: Q04DX003 (ip), vehicle: Klucel (hydroxypropylcellulose) (HPC) 108 % of control

COC(C)(C)C(C)O (configuration not stated)
inactive: dose: 50.0 mg/kg/injection, schedule: Q01DX009 (ip), vehicle: saline 100 % of control | dose: 100.0 mg/kg/injection, schedule: Q01DX009 (ip), vehicle: saline 96 % of control | dose: 200.0 mg/kg/injection, schedule: Q01DX009 (ip), vehicle: saline 100 % of control

CN(C)c1nnc(-c2ccc(Cl)cc2)nn1
inactive: dose: 100.0 mg/kg/injection, schedule: Q01DX001 (ip), vehicle: saline with Tween-80 96 % of control | dose: 200.0 mg/kg/injection, schedule: Q01DX001 (ip), vehicle: saline with Tween-80 92 % of control | dose: 400.0 mg/kg/injection, schedule: Q01DX001 (ip), vehicle: saline with Tween-80 88 % of control

O=C1NC2CCCCCCC12 (configuration not stated)
inactive: dose: 100.0 mg/kg/injection, schedule: Q04DX002 (ip), vehicle: saline + alcohol 119 % of control | dose: 200.0 mg/kg/injection, schedule: Q04DX002 (ip), vehicle: saline + alcohol 105 % of control | dose: 400.0 mg/kg/injection, schedule: Q04DX002 (ip), vehicle: saline + alcohol 105 % of control

CC1=C/C(=N\NC(N)=O)CCC1
inactive: [3] 97 % of control | dose: 200.0 mg/kg/injection, schedule: Q04DX002 (ip), vehicle: Klucel (hydroxypropylcellulose) (HPC) 86 % of control | [4] 105 % of control

CC(=O)Nc1cc2[nH]c(=O)c3ccccc3c2cc1Cl
inactive: [10] 100 % of control | [11] 105 % of control | [12] 93 % of control

O=C1NC(=O)C(c2ccc(C(F)(F)F)cc2)(c2ccc(C(F)(F)F)cc2)N1
inactive: dose: 100.0 mg/kg/injection, schedule: Q01DX009 (ip), vehicle: saline with Tween-80 98 % of control | [5] 92 % of control | dose: 200.0 mg/kg/injection, schedule: Q01DX009 (ip), vehicle: saline with Tween-80 90 % of control | [6] 96 % of control | dose: 400.0 mg/kg/injection, schedule: Q01DX009 (ip), vehicle: saline with Tween-80 86 % of control | [7] 89 % of control
